This is an account of results in the supplement of paper PMC10307832.

Holding throughout (assay): relative viability (nuclei count vs DMSO), 5 days (fraction); higher = more cells survive
Compound in the test “Vemurafenib + Trametinib”: CCCS(=O)(=O)Nc1ccc(F)c(C(=O)c2c[nH]c3ncc(-c4ccc(Cl)cc4)cc23)c1F [Vemurafenib] + CC(=O)Nc1cccc(-n2c(=O)n(C3CC3)c(=O)c3c(Nc4ccc(I)cc4F)n(C)c(=O)c(C)c32)c1 [Trametinib] (partner 0.02 µM)
A digest of the protocol: (§1)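 For relative viability, nuclei counts in treated wells were divided by those in vehicle wells. Lung cancer cell lines had been pin-tool dosed in 1536-well plates the day after seeding and cultured for 5 days, then fixed and stained in one step (final 0.05% Triton X-100, 1% formaldehyde, 1 ug/ml Hoechst) and imaged at 4×. Doses were one drug alone or a fixed anchor-drug dose plus five library-drug doses (not always all listed) in √10 steps, and values are duplicate-plate medians.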

Compound in the test “OSI-027 + Foretinib”: COc1cccc2cc(-c3nc([C@H]4CC[C@H](C(=O)O)CC4)n4ncnc(N)c34)[nH]c12 [OSI-027] + COc1cc2c(Oc3ccc(NC(=O)C4(C(=O)Nc5ccc(F)cc5)CC4)cc3F)ccnc2cc1OCCCN1CCOCC1 [Foretinib] (partner 0.25 µM)
A digest of the protocol:
as §1

Compound in the test “Alpelisib + Palbociclib”: Cc1nc(NC(=O)N2CCC[C@H]2C(N)=O)sc1-c1ccnc(C(C)(C)C(F)(F)F)c1 [Alpelisib] + CC(=O)c1c(C)c2cnc(Nc3ccc(N4CCNCC4)cn3)nc2n(C2CCCC2)c1=O [Palbociclib] (partner 0.5 µM)
A digest of the protocol:
as §1

Compound in the test “OSI-027 + Navitoclax”: COc1cccc2cc(-c3nc([C@H]4CC[C@H](C(=O)O)CC4)n4ncnc(N)c34)[nH]c12 [OSI-027] + CC1(C)CCC(c2ccc(Cl)cc2)=C(CN2CCN(c3ccc(C(=O)NS(=O)(=O)c4ccc(N[C@H](CCN5CCOCC5)CSc5ccccc5)c(S(=O)(=O)C(F)(F)F)c4)cc3)CC2)C1 [Navitoclax] (partner 0.5 µM)
The gist of the method: as §1

As for UMC-11, the relative viability in the test with Vemurafenib + Trametinib (first compound 0.03162 µM) was 0.657; with Vemurafenib + Trametinib (first compound 0.1 µM), 0.756; with Vemurafenib + Trametinib (first compound 0.3162 µM), 0.475; in the test with Vemurafenib + Trametinib (first compound 1 µM) it was 0.355; with OSI-027 + Foretinib (first compound 0.01 µM) it was 0.903; in the test with OSI-027 + Foretinib (first compound 0.03162 µM), 0.866. Besides, the relative viability in the test with OSI-027 + Foretinib (first compound 0.1 µM) stood at 0.77; with OSI-027 + Foretinib (first compound 0.3162 µM), 0.671; with OSI-027 + Foretinib (first compound 1 µM) it was 0.444; with Alpelisib + Palbociclib (first compound 0.04 µM), 0.333; with Alpelisib + Palbociclib (first compound 0.1265 µM) it was 0.3; with Alpelisib + Palbociclib (first compound 0.4 µM), 0.357. For the same cell line, the relative viability with Alpelisib + Palbociclib (first compound 1.265 µM) came out at 0.307; in the test with Alpelisib + Palbociclib (first compound 4 µM), 0.328; with OSI-027 + Navitoclax (first compound 0.01 µM), 0.317; in the test with OSI-027 + Navitoclax (first compound 0.03162 µM) it was 0.29; with OSI-027 + Navitoclax (first compound 0.1 µM) it was 0.29; with OSI-027 + Navitoclax (first compound 0.3162 µM), 0.257. Besides, in the test with OSI-027 + Navitoclax (first compound 1 µM), the relative viability was 0.216.
